From patent US20260053811A1, “METHODS OF TREATING HYPERTENSION IN OBESE SUBJECTS” (Mineralys Therapeutics, Inc., priority 2022, published 2026)

System: hypertensive subjects
Assay: Seated automated office blood pressure (AOBP) in randomized, placebo-controlled, dose-ranging study
Format: in vivo, human
Settings: Part 1
Description: A randomized, double-blinded, placebo-controlled, dose-ranging, multicenter study was conducted to evaluate the effect of orally administered Compound A HBr on blood pressure for the treatment of hypertension in male and female subjects ≥18 years of age.
The study consists of two parts. For enrollment into Part 1 of the study, a subject's value of plasma renin activity (PRA) must be ≤1 ng/mL/h based on morning measurement. If the value of PRA >1 ng/mL/h based on morning measurement, then subjects may be eligible to enter Part 2 of the study.
For Part 1, 163 enrolled subjects ≥18 years of age were randomized into 6 equal treatment groups (1:1:1:1:1:1) to 12.5 mg BID, 25 mg BID, 12.5 mg QD, 50 mg QD, 100 mg QD, or placebo. After a review of interim clinical data, the 2 lowest dose levels (12.5 mg QD and 12.5 mg BID) were stopped for future randomization due to a lack of consistent meaningful reduction of blood pressure, but the patients randomized to that point remained in the study through completion. Thus, after the review of interim clinical data, subjects were randomized into 4 equal treatment groups (1:1:1:1) to 25 mg BID, 50 mg QD, 100 mg QD, or placebo.
For Part 2, 36 enrolled subjects ≥18 years of age were randomized (5:1) to either 100 mg QD Compound A HBr or placebo such that the Compound A HBr treatment group consisted of approximately 30 subjects and the placebo treatment group will consist of approximately 6 subjects.
Subjects orally administered the assigned study drug (Compound A HBr or placebo) according to the assigned dosing regimen for 8 weeks beginning on Study Day 1. All subjects in Part 1 (regardless of dosing group) received BID dosing to preserve the integrity of the blind; active drug is administered as the morning dose for all QD dose groups. Subjects returned to the research facility or were seen by the clinical investigator or approved home health care professional at the end of Study Weeks 1, 2, 3, 4, 5, 6, 7, and 8 (±2 days) for protocol-defined efficacy and safety assessments and procedures, assessment of adverse events (AEs), and confirmation of compliance with study drug usage. Subjects also completed a telephone visit and blood pressure (BP) check at home approximately 3 days post last dose of study drug. Subjects attended up to 14 full clinic visits, including a pre-Screening visit, a Screening/start of Placebo Run-in visit, a second visit during Placebo Run-in, a clinic visit to initiate the ABPM procedure, a Randomization visit, 8 weekly visits during double-blind treatment, and an end-of-study visit scheduled 4 weeks after the last study treatment for final efficacy and safety assessments.
An automated oscillometric sphygmomanometer device was used to measure the subjects' systolic and diastolic blood pressure in office after approximately 5 minutes of rest in the seated position.
The primary endpoint is the change in office-measured (mean of last 2 of 5 unattended measurements using an automated oscillometric sphygmomanometer device after approximately 5 minutes of rest in the seated position) systolic blood pressure (SBP) from baseline to the end of Study Week 8.
Secondary endpoints of this study were: • (a) Change in 24-hour ambulatory blood pressure monitoring (ABPM) parameters (systolic and diastolic) from baseline to the end of Study Week 7. • (b) Change in office-measured SBP from baseline to the end of Study Weeks 1, 2, 3, 4, 5, 6, and 7. • (c) Change in office-measured diastolic blood pressure (DBP) from baseline to the end of Study Weeks 1, 2, 3, 4, 5, 6, 7, and 8. • (d) Proportion of subjects who achieve office-measured BP of ≤130/80 mm Hg by the end of Study Week 8.

[1] = 12.5 mg QD, Systolic Blood Pressure Tertile at Baseline Low
[2] = 12.5 mg QD, Systolic Blood Pressure Tertile at Baseline Middle
[3] = 12.5 mg QD, Thiazide Diuretic Use at Baseline No
[4] = 12.5 mg QD, Thiazide Diuretic Use at Baseline Yes

CC(=O)N[C@H]1CC[C@H](NC(=O)CN2CCN(c3nncc(-c4ccc(C)cc4)n3)CC2)CC1 [Compound A HBr]
Mean (SD) Change from Baseline at Week 8 in Automated Office-Measured Systolic Blood Pressure (12.5 mg QD, Systolic Blood Pressure Tertile at Baseline High): −10.83 (23.91) mmHg | Mean (SD) Automated Office-Measured Systolic Blood Pressure at Wk 8 [1]: 131.17 (12.77) mmHg | Mean (SD) Change from Baseline at Week 8 in Automated Office-Measured Systolic Blood Pressure [1]: −3.75 (13.24) mmHg | Mean (SD) Automated Office-Measured Systolic Blood Pressure at Wk 8 [2]: 143.33 (22.23) mmHg | Mean (SD) Change from Baseline at Week 8 in Automated Office-Measured Systolic Blood Pressure [2]: −1.17 (21.80) mmHg | Automated Office-Measured Diastolic Blood Pressure, Week 8, Mean (SD) [3]: 88.11 (21.40) mmHg | Mean (SD) Automated Office-Measured Systolic Blood Pressure at Wk 8 [3]: 149.11 (26.02) mmHg | Mean (SD) Change from Baseline at Week 8 in Automated Office-Measured Diastolic Blood Pressure [3]: 1.56 (17.70) mmHg | Mean (SD) Change from Baseline at Week 8 in Automated Office-Measured Systolic Blood Pressure [3]: −5.83 (25.10) mmHg | Automated Office-Measured Diastolic Blood Pressure, Week 8, Mean (SD) [4]: 74.78 (8.58) mmHg | Mean (SD) Automated Office-Measured Systolic Blood Pressure at Wk 8 [4]: 132.44 (14.02) mmHg | Mean (SD) Change from Baseline at Week 8 in Automated Office-Measured Diastolic Blood Pressure [4]: −5.11 (6.26) mmHg | Mean (SD) Change from Baseline at Week 8 in Automated Office-Measured Systolic Blood Pressure [4]: −7.89 (14.31) mmHg | Mean (SD) Automated Office-Measured Systolic Blood Pressure at Wk 8 (25 mg BID, ACEi/ARB No): 123.67 (28.36) mmHg | Mean (SD) Change from Baseline at Week 8 in Automated Office-Measured Systolic Blood Pressure (25 mg BID, ACEi/ARB No): −19.17 (12.25) mmHg | Mean (SD) Automated Office-Measured Systolic Blood Pressure at Wk 8 (25 mg BID, ACEi/ARB Yes): 132.20 (15.32) mmHg | Mean (SD) Change from Baseline at Week 8 in Automated Office-Measured Systolic Blood Pressure (25 mg BID, ACEi/ARB Yes): −9.04 (14.04) mmHg | Mean (SD) Automated Office-Measured Diastolic Blood Pressure at Wk 8 (25 mg BID, ACEi/ARBs No): 68.67 (8.33) mmHg | Mean (SD) Change from Baseline at Week 8 in Automated Office-Measured Diastolic Blood Pressure (25 mg BID, ACEi/ARBs No): −10.33 (13.25) mmHg | Mean (SD) Automated Office-Measured Diastolic Blood Pressure at Wk 8 (25 mg BID, ACEi/ARBs Yes): 76.24 (13.40) mmHg | Mean (SD) Change from Baseline at Week 8 in Automated Office-Measured Diastolic Blood Pressure (25 mg BID, ACEi/ARBs Yes): −2.88 (11.56) mmHg | Mean (SD) Automated Office-Measured Diastolic Blood Pressure at Wk 8 (25 mg BID, AHTs 2): 79.31 (15.91) mmHg | Mean (SD) Automated Office-Measured Systolic Blood Pressure at Wk 8 (25 mg BID, AHTs 2): 136.92 (18.45) mmHg | Mean (SD) Change from Baseline at Week 8 in Automated Office-Measured Diastolic Blood Pressure (25 mg BID, AHTs 2): −2.12 (15.46) mmHg | Mean (SD) Change from Baseline at Week 8 in Automated Office-Measured Systolic Blood Pressure (25 mg BID, AHTs 2): −6.15 (13.68) mmHg | Mean (SD) Automated Office-Measured Diastolic Blood Pressure at Wk 8 (25 mg BID, AHTs ≥3): 72.07 (9.26) mmHg | Mean (SD) Automated Office-Measured Systolic Blood Pressure at Wk 8 (25 mg BID, AHTs ≥3): 126.40 (13.57) mmHg | Mean (SD) Change from Baseline at Week 8 in Automated Office-Measured Diastolic Blood Pressure (25 mg BID, AHTs ≥3): −5.03 (7.45) mmHg | Mean (SD) Change from Baseline at Week 8 in Automated Office-Measured Systolic Blood Pressure (25 mg BID, AHTs ≥3): −13.57 (13.83) mmHg | Mean (SD) Automated Office-Measured Diastolic Blood Pressure at Wk 8 (25 mg BID, Age 65-79 yr): 74.71 (17.26) mmHg | Mean (SD) Automated Office-Measured Systolic Blood Pressure at Wk 8 (25 mg BID, Age 65-79 yr): 133.86 (19.37) mmHg | Mean (SD) Change from Baseline at Week 8 in Automated Office-Measured Diastolic Blood Pressure (25 mg BID, Age 65-79 yr): −0.46 (14.22) mmHg | Mean (SD) Change from Baseline at Week 8 in Automated Office-Measured Systolic Blood Pressure (25 mg BID, Age 65-79 yr): −7.82 (14.88) mmHg | Mean (SD) Automated Office-Measured Diastolic Blood Pressure at Wk 8 (25 mg BID, Age <65 yr): 76.54 (7.57) mmHg | Mean (SD) Automated Office-Measured Systolic Blood Pressure at Wk 8 (25 mg BID, Age <65 yr): 127.38 (13.07) mmHg | Mean (SD) Change from Baseline at Week 8 in Automated Office-Measured Diastolic Blood Pressure (25 mg BID, Age <65 yr): −6.69 (8.06) mmHg | Mean (SD) Change from Baseline at Week 8 in Automated Office-Measured Systolic Blood Pressure (25 mg BID, Age <65 yr): −12.31 (13.78) mmHg | Mean (SD) Automated Office-Measured Diastolic Blood Pressure at Wk 8 (25 mg BID, Age ≥80 yr): 71.00 (NE) mmHg | Mean (SD) Automated Office-Measured Systolic Blood Pressure at Wk 8 (25 mg BID, Age ≥80 yr): 146.00 (NE) mmHg | Mean (SD) Change from Baseline at Week 8 in Automated Office-Measured Diastolic Blood Pressure (25 mg BID, Age ≥80 yr): −9.50 (NE) mmHg | Mean (SD) Change from Baseline at Week 8 in Automated Office-Measured Systolic Blood Pressure (25 mg BID, Age ≥80 yr): −14.00 (NE) mmHg | Mean (SD) Automated Office-Measured Diastolic Blood Pressure at Wk 8 (25 mg BID, BMI 25−30 kg/m^2): 78.89 (20.58) mmHg | Mean (SD) Change from Baseline at Week 8 in Automated Office-Measured Diastolic Blood Pressure (25 mg BID, BMI 25−30 kg/m^2): 1.11 (16.18) mmHg | Mean (SD) Automated Office-Measured Diastolic Blood Pressure at Wk 8 (25 mg BID, BMI <25 kg/m^2): 69.25 (9.50) mmHg | Mean (SD) Change from Baseline at Week 8 in Automated Office-Measured Diastolic Blood Pressure (25 mg BID, BMI <25 kg/m^2): −8.25 (7.63) mmHg | Mean (SD) Automated Office-Measured Diastolic Blood Pressure at Wk 8 (25 mg BID, BMI >30 kg/m^2): 75.00 (6.97) mmHg
